These results are taken from publication PMC3070621, “Generation of novel cationic antimicrobial peptides from natural non-antimicrobial sequences by acid-amide substitution” (Annals of Clinical Microbiology and Antimicrobials, 2011).

No end group written: not given here.

Data set [1] deals with Salmonella typhimurium IFO13245. It counts as cell-based. As to conditions: murium IFO13245, 2 h, pH 7.5. The protocol:
(§1) Microbicidal assay was performed as previously described. A low ionic strength condition was used to detect bactericidal activity with higher sensitivity. Briefly, each microbial strain in the mid-exponential phase was suspended in 10 mM Tris/HCl, pH 7.5. The microbial suspension was mixed with peptides. After 2 h incubation, the suspension was diluted 1,000 times and inoculated on to plates of IFO702 medium (1% polypeptone, 0.2% yeast extract, 0.1% MgSO4 7H2O, 2% agar). The numbers of colonies were counted, and a plot of peptide concentration vs colony number was created.

Data set [2] relates to Saccharomyces cerevisiae MAFF113011. It counts as cell-based. The note with it: MAFF113011, 2 h, pH 7.5. Here is the method:
as §1

For data set [3], the system named is Pseudomonas aeruginosa IFO3899. The data set is classed as cell-based. As to conditions: IFO3899, 2 h, pH 7.5. The protocol: as §1
The next data set has as its system Escherichia coli JM109. It counts as cell-based. As to conditions: JM109, 2 h, pH 7.5. Here is the method:
as §1

In data set [4] the test system is Staphylococcus aureus IFO12732. It counts as cell-based. The note with it: IFO12732, 2 h, pH 7.5. The protocol:
as §1

Data set [5] concerns Bacillus subtilis IFO3134. The data set is classed as cell-based. The note with it: IFO3134, 2 h, pH 7.5. Here is the method: as §1
The subject of data set [6] is Serratia marcescens IFO3736. It counts as cell-based. As to conditions: IFO3736, 2 h, pH 7.5. The protocol: as §1
In data set [7] the test system is Micrococcus luteus IFO12708. The data set is classed as cell-based. As to conditions: IFO12708, 2 h, pH 7.5. The protocol: as §1
Data set [8] is described as follows: Precipitation in the presence of PG/CL liposomes (CD sample conditions). It counts as physicochemical. As to conditions: peptide 100 μg/ml, PG/CL liposome 500 μg/ml, 10 mM Tris-HCl pH 7.5, 20°C. Here is the method: CD spectra were recorded on a J-720 spectropolarimeter (JASCO, Tokyo, Japan) in the far-ultraviolet (UV) range from 190 to 260 nm using a 0.1 cm thermostatted cell at 25°C. Peptides were dissolved in 10 mM Tris-HCl (pH 7.5) containing tri-fluoroethanol (TFE) at 0-100%. For measurement under the presence of liposomes, peptides were dissolved at 100 μg/ml containing 500 μg/ml liposomes at 20°C.
Furthermore, membrane-disruptive activities against liposomes were also estimated. A liposome dye-leakage assay was used. […] In contrast, NP2P and NP3P damaged the PG/CL liposome membrane at ≥0.3 μg/ml (Figure 4). The concentration was equal or lower than MBCs against Gram-positive bacteria, which were measured under identical ionic conditions. […] Since CD spectra could not be measured, the conformation of NP3P in the presence of PG/CL membrane remains unclear.

Another data set deals with Human erythrocytes. Briefly: Hemolytic assay. It counts as cell-based. The note with it: peptide 300 μg/mL, 10 mM Tris-HCl pH 7.5 with 308 mM sucrose, 0.5 h, A540, pure water = 100% lysis. Here is the method:
Hemolytic assay was performed as previously described. Human erythrocytes were used. Hemolysis was estimated as the leakage of haemoglobin. The erythrocytes were washed and resuspended in 10 mM Tris-HCl, pH 7.5, containing 308 mM sucrose. The erythrocyte suspension was diluted by 30%. The diluted suspension was mixed with the equal volume of peptide solution dissolved in the same buffer. After 0.5 h of incubation, the test suspension was centrifuged to remove the intact erythrocytes. The supernatant was diluted, and A540 was measured. The hemolysis caused by pure water was defined as 100% lysis.

Data set [9] can be described thus: Liposome disruption assay (calcein release), PC liposomes. Here is the method: (§2) Membrane-disrupting activity was estimated by liposome disruption assay. Bovine heart phosphatidylglycerol (PG), egg cardiolipin (CL), and egg phosphatidylcholine (PC) were purchased from Avanti Polar Lipids, Inc., Alabama, USA. A lipid film was prepared by rotary evaporation of lipid solution (1 mg lipid in 1 ml chloroform). The lipid film was hydrated with 1 ml of 10 mM Tris-HCl buffer (pH 7.5) containing 75 mM calcein. Lipid dispersions were sonicated and subjected to five freeze-thaw cycles. Non-trapped calcein was removed by gel filtration on a Sephacryl S-300 spin column (GE Healthcare Bio-Science Corp., Piscataway, NJ, USA) equilibrated with 10 mM Tris-HCl (pH 7.5) containing 175 mM NaCl and 1 mM EDTA. These calcein-entrapped liposomes were diluted at a ratio of 1:1000 in 10 mM Tris-HCl (pH 7.5) containing 350 mM sucrose. Calcein release after membrane disruption was evaluated by measuring fluorescence intensity at 515 nm with excitation at 492 nm on a RF-5300PC spectrofluorometer at room temperature.

The nature of data set [10]: Liposome disruption assay (calcein release), PG/CL liposomes. The note with it: PG:CL = 3:1 (molar), 10 mM Tris-HCl pH 7.5 with 350 mM sucrose, room temperature, three independent trials. The protocol:
as §2
Figure 4 Membrane-disruption against acidic-liposomes. Calcein release from vesicles consisting of PG:CL = 3:1 was measured. Each point was obtained from three independent trials using a single preparation of liposomes and peptides, and represents the mean ± standard error of the mean.

For data set [11] the following is noted: cited from earlier work.

As to RRRSVGEEDAIPSHIEVNKFFLRKPAKEHI-OH [P3P], the MBC in data set [1] is greater than 300 µg/mL; in data set [2], greater than 300 µg/mL; in data set [3], 70 µg/mL; with Escherichia coli JM109, greater than 300 µg/mL; in [4] it was greater than 300 µg/mL; in data set [5], greater than 300 µg/mL. Also, the MBC in data set [6] is >300 (>300) μg/ml; in [7], 200 µg/mL. Moreover, in data set [8], the “precipitation in the presence of PG/CL liposome” value was “not affected”. In the data set with Human erythrocytes, the “Hemolytic activity (%)” value is listed as 1.69 ± 0.05%.
With “RRRSVGQQNAIPSHIQVNKFFLRKPAKQHI-OH [NP3P]”, the MBC turned out to be 20 µg/mL in data set [1]; 7 µg/mL in data set [2]; 20 µg/mL in data set [3]; 7 µg/mL in the data set with Escherichia coli JM109; 5 µg/mL in data set [4]; 20 µg/mL in data set [5]. Besides, the MBC was >300 (>300) μg/ml in [6] and 10 µg/mL in data set [7]. Further, the “effect on PC liposome membrane (in words)” value in [9] (PC liposomes, data not shown) is listed as “did not affect PC liposome membrane”. Moreover, the “concentration causing dye-leakage (membrane damage) of PG/CL liposomes” value in data set [10] is no less than 0.3 µg/mL. Moreover, the “precipitation in the presence of PG/CL liposome” value in [8] was “precipitated”. The “Hemolytic activity (%)” value with Human erythrocytes was determined as 2.61 ± 0.02%.
As to HRRSVAHQEEASLHVKTDELPSPDTVREQL-OH [P4P], the MBC (in data set [1]; in data set [2]; in data set [3]; in the data set on Escherichia coli JM109; in data set [4]; in [5]) was >300 (>300) μg/ml in each case. In addition, the MBC in data set [6] and in [7] was >300 (>300) μg/ml throughout.
For the substance RRRFVAQQNAIHSRVSRQVPTLSNSV-OH [NP1P], the MBC in [1] is 30 µg/mL; in data set [2] it was 200 µg/mL; in data set [3] it was 20 µg/mL; in the data set on Escherichia coli JM109, 10 µg/mL; in data set [4] it was 10 µg/mL; in data set [5], 30 µg/mL. In addition, the MBC is >300 (>300) μg/ml in data set [6] and 30 µg/mL in data set [7]. Also, in data set [9] (PC only liposomes, 10 mM Tris-HCl pH 7.5 with 350 mM sucrose, room temperature), the “concentration causing dye-leakage (membrane disruption) of PC liposomes” value is greater than 200 µg/mL. Further, the “concentration causing dye-leakage (membrane damage) of PG/CL liposomes” value in [10] is greater than 200 µg/mL. Moreover, in the data set on Human erythrocytes, the “Hemolytic activity (%)” value is reported as 1.32 ± 0.02%.
Consider RRRFVAEQDAIHSRVSREVPTLSDSV-OH [P1P], for which the MBC (in [1]; in data set [2]; in data set [3]; against Escherichia coli JM109; in data set [4]; in [5]) was greater than 300 µg/mL in each case. Also, the MBC in [6] is >300 (>300) μg/ml; in [7], greater than 300 µg/mL. The “Hemolytic activity (%)” value in the data set with Human erythrocytes is 0.00 ± 0.00%.
On to “HRRSVAHQQQASLHVKTNQLPSPNTVRQQL-OH [NP4P]”, for which the MBC (in data set [1]; in [2]; in data set [3]; with Escherichia coli JM109; in [4]; in data set [5]) was >300 (>300) μg/ml throughout. Besides, the MBC in data set [6] and in data set [7] was >300 (>300) μg/ml each time. Besides, in [11], the “enhancer activity for membrane-disruptive antimicrobial peptides” value is “enhancer activity for membrane-disruptive antimicrobial peptides was detected”.
